The record followed here is patent US12098129B2, “Pharmaceutical composition for treating fibrosis” (LTT BIO-PHARMA CO., LTD., priority 2018, dated 2024).

In experiment [1] the test system is LL29 cells (IPF patient-derived lung fibroblast cells). In words: MTT cell viability of lung fibroblast cells compared with alveolar epithelial cells. The class given is cell-based, human. To be noted: LL29 versus A549 cells, survived cell number. The procedure:
A549 cells (human alveolar epithelial cells) and LL29 cells (IPF patient-derived lung fibroblast cells) were cultured under conditions of 37° C. and 5% CO2 by using, respectively, Dulbecco's modified Eagle's medium containing 10% FBS and Ham's F-12K (Kaighn's) medium containing 15% FBS.
The number of living cells was measured by an MTT method or trypan blue staining using Countess (trademark) Automated Cell Counter (Invitrogen, Carlsbad, CA). For evaluation of cell death, LDH activity in the medium was measured in accordance with the protocol of the assay kit.
For a specific method, IPF patient-derived lung fibroblast cells (LL29 cells) and human alveolar epithelial cells (A549 cells) were treated with existing approved drugs, and the cell viability 24 hours later was evaluated by an MTT method.
As with (b-1) above, IPF patient-derived lung fibroblast cells (LL29 cells) and human alveolar epithelial cells (A549 cells) were treated with existing approved drugs, and the cell viability 24 hours later was evaluated by an MTT method.

Experiment [2] relates to BLM pulmonary injury model mouse. Description: BLM pulmonary injury model: H&E / Masson's trichrome staining, Ashcroft score, hydroxyproline. In kind it is in vivo. To be noted: oral, once a day day 10 to day 18, BLM 1 mg/kg; pirfenidone 200 mg/kg, nintedanib 30 mg/kg, tolperisone 5 mg/kg; day 20.

“Also recorded” adds a separate entry of the source.

Consider `Clc1ccc2nsnc2c1NC1=NCCN1` [tizanidine], for which the “fibroblast cell-selective decrease in cell viability / cell death (LL29 versus A549)” value in experiment [1] is “did not exhibit such an effect”.

Take `CCc1ccc(C(=O)C(C)CN2CCCC2)cc1` (stereo not shown) [inaperisone]: the “fibroblast cell-selective decrease in cell viability / cell death (LL29 versus A549)” value in experiment [1] was “induced fibroblast cell-selective cell death”.

On to `C[C@H](CN1CCCC1)C(=O)c1ccc(C(F)(F)F)cc1` [lanperisone], for which the “fibroblast cell-selective decrease in cell viability / cell death (LL29 versus A549)” value in experiment [1] is listed as “induced fibroblast cell-selective cell death”. Take `Cc1ccc(=O)n(-c2ccccc2)c1` [pirfenidone]: in experiment [1], the “fibroblast cell-selective decrease in cell viability / cell death (LL29 versus A549)” value was “did not induce fibroblast cell-selective cell death; also recorded: hardly induced fibroblast cell-selective cell death”. Also, the BLM-dependent pulmonary injuries entry in experiment [2] is recorded as “hardly suppressed BLM-dependent pulmonary injuries”.

Turning to `COC(=O)c1ccc2c(c1)NC(=O)/C2=C(\Nc1ccc(N(C)C(=O)CN2CCN(C)CC2)cc1)c1ccccc1` [nintedanib], the “fibroblast cell-selective decrease in cell viability / cell death (LL29 versus A549)” value in experiment [1] was “did not induce fibroblast cell-selective cell death; also recorded: hardly induced fibroblast cell-selective cell death”. Besides, the BLM-dependent pulmonary injuries result in experiment [2] is on record as “hardly suppressed BLM-dependent pulmonary injuries”.
